Where two headings read alike, the source gives them in different places. Values belong to the compound of their own block, whether it stands above or below them.
Legend:
Format in all cases: in vivo
[1] = test system: Oryza sativa (ORYSA); assay: Post-emergence action, greenhouse pot test, visual scoring: ORYSA
Description: (§1) Seeds or rhizome pieces of mono- and dicotyledonous harmful and useful plants were placed in peat pots (diameter 4 cm) filled with sandy loam and then covered with soil. The pots were kept in a greenhouse under optimum conditions. In addition, harmful plants encountered in paddy rice cultivation were cultivated in pots with a water level 2 cm above the soil surface.
(§2) About three weeks after the start of the cultivation, the test plants were treated at the 2- to 3-leaf stage. The herbicides, formulated as powder or liquid concentrates, were, either alone or in the combinations according to the invention, sprayed in various dosages on to the green parts of the plants using an application rate of 600 l of water/ha (converted). For further cultivation of the plants, the pots were then again kept under optimum conditions in a greenhouse.
(§3) The visual scoring of the herbicidal effects was carried out in intervals up to 21 days after the treatment. Scoring was carried out in percent in comparison to the untreated control plants. 0%=no herbicidal activity, 100%=complete herbicidal activity=complete kill.
(§4) The percentages from the treatments with the herbicides alone (=individual application) and with the combinations according to the invention (=mixtures) were employed to calculate interactions using the method of Colby. When the observed efficacies of the mixtures exceed the formal sum of the values of the tests with individual applications, they also exceed the expected value according to Colby, which is calculated using the formula below (cf. S. R. Colby; in Weeds 15 (1967) pp. 20 to 22):
(§5) Here: • A, B=activity of components A and B in percent at a dosage of a and b g of ai/ha (=gramm of active substance per hectare), respectively. • E=expected value in % at a dosage of a+b g of ai/ha.
(§6) The combinations according to the invention of herbicides from group (A) with herbicides from group (B) were tested on a broad spectrum of important harmful plants (weed grasses, broad-leaved weeds/Cyperaceae) and useful plants: Triticum aestivum (TRZAS), Stellaria media (STEME), Lolium multiflorum (LOLMU), Veronica persica (VERPE), Alopecurus myosuroides (ALOMY), Matricaria inodora (MATIN), Brassica napus (BRSNW), Viola tricolor (VIOTR), Avena fatua (AVEFA), Amaranthus retroflexus (AMARE), Zea mays (ZEAMX), Pharbitis purpurea (PHBPU), Setaria viridis (SETVI), Fallopia (ex Polygonum) convolvulus (POLCO), Echinochloa crusgaffi (ECHCG), Abuthilon theophrasti (ABUTH), Cyperus esculentus (CYPES), Oryza sativa (ORYSA).
(§7) Of particular interest are the results shown in the tables (Tab.) below, where the following key is used: • (1) EPPO code (former Bayer code) for the treated plant (see above) • (2) Time of scoring: DAT (days after treatment) • (3) Component A tested (identifying number) • (4) Component B tested (identifying number) • (5) Dosage component A [g of ai/ha] • (6) Dosage component B [g of ai/ha] • (7) % activity found • (8) E value (calculated according to Colby; see above) • (9) Comments: “SYNERGY” =synergistic interaction (E value<% activity found); “SAFENING”=safener action on useful plant (E value>% activity found)

[2] = test system: Triticum aestivum (TRZAS); assay: Post-emergence action, greenhouse pot test, visual scoring: TRZAS
Description: as §1, §2, §3, §4, §5, §6, §7

[3] = test system: Zea mays (ZEAMX); assay: Post-emergence action, greenhouse pot test, visual scoring: ZEAMX; details: for plant injury at 700 g/ha: B 700 g of ai/ha; for plant injury at 2100 g/ha: B 2100 g of ai/ha; for plant injury at 40 g/ha: B 40 g of ai/ha
Description: as §1, §2, §3, §4, §5, §6, §7

[4] = test system: Avena fatua (AVEFA); assay: Post-emergence action, greenhouse pot test, visual scoring: AVEFA
Description: as §1, §2, §3, §4, §5, §6, §7

[5] = test system: Viola tricolor (VIOTR); assay: Post-emergence action, greenhouse pot test, visual scoring: VIOTR; details: for (7) % activity found: rate (6) 2
Description: as §1, §2, §3, §4, §5, §6, §7

[6] = test system: Fallopia (ex Polygonum) convolvulus (POLCO); assay: Post-emergence action, greenhouse pot test, visual scoring: POLCO; details: 21 DAT
Description: as §1, §2, §3, §4, §5, §6, §7

[7] = test system: Cyperus esculentus (CYPES); assay: Post-emergence action, greenhouse pot test, visual scoring: CYPES; details: 21 DAT
Description: as §1, §2, §3, §4, §5

[8] = test system: Veronica persica (VERPE); assay: Post-emergence action, greenhouse pot test, visual scoring: VERPE; details: 21 DAT
Description: as §1, §2, §3, §4, §5, §6, §7

[9] = test system: Lolium multiflorum (LOLMU); assay: Post-emergence action, greenhouse pot test, visual scoring: LOLMU
Description: as §1, §2, §3, §4, §5, §6, §7

[10] = test system: Pharbitis purpurea (PHBPU); assay: Post-emergence action, greenhouse pot test, visual scoring: PHBPU; details: 21 DAT
Description: as §1, §2, §3, §4, §5, §6, §7

[11] = test system: Matricaria inodora (MATIN); assay: Post-emergence action, greenhouse pot test, visual scoring: MATIN
Description: as §1, §2, §3, §4, §5

[12] = test system: Alopecurus myosuroides (ALOMY); assay: Post-emergence action, greenhouse pot test, visual scoring: ALOMY; details: Alopecurus myosuroides, post-emergence, read-out: % activity found; for pest or weed control at 40 g/ha: B 40 g of ai/ha
Description: as §1, §2, §3, §4, §5

[13] = test system: Setaria viridis (SETVI); assay: Post-emergence action, greenhouse pot test, visual scoring: SETVI; details: Setaria viridis, post-emergence, 504 h, 21 DAT, read-out: % activity found
Description: as §1, §2, §3, §4, §5, §6, §7

[14] = Zea mays, post-emergence, 240 h, 10 DAT, read-out: % activity found
[15] = Zea mays, post-emergence, 504 h, 21 DAT, read-out: % activity found

(7) % activity found ([1]; 10 DAT, rate (6) 2): 90%
(7) % activity found ([1]; 21 DAT, rate (6) 2): 70%
Compound: COC(=O)c1ccc(I)cc1S(=O)(=O)NC(=O)Nc1nc(C)nc(OC)n1.[Na] [B7-16, methyl 4-iodo-2-[[[[(4-methoxy-6-methyl-1,3,5-triazin-2-yl)amino]carbonyl]amino]sulfonyl]benzoate sodium salt]
(7) % activity found ([2]; 10 DAT, rate (6) 2): 40%
(7) % activity found ([2]; 21 DAT, rate (6) 2): 20%
(7) % activity found ([2]; 21 DAT, rate (6) 6): 60%
(7) % activity found ([3]; 10 DAT, rate (6) 2): 30%
(7) % activity found ([3]; 10 DAT, rate (6) 6): 20%
(7) % activity found ([3]; 21 DAT, rate (6) 2): 0%
(7) % activity found ([4]; 21 DAT, rate (6) 2): 10%
(7) % activity found ([5]; 10 DAT): 70%
(7) % activity found ([5]; 21 DAT): 90%

(7) % activity found ([1]; 10 DAT, rate (6) 6): 90%
Compound: COC(=O)c1ccc(CNS(C)(=O)=O)cc1S(=O)(=O)NC(=O)Nc1nc(OC)cc(OC)n1 [B7-17, methyl 2-[[[[(4,6-dimethoxy-2-pyrimidinyl)amino]carbonyl]amino]sulfonyl]-4-[[(methylsulfonyl)amino]methyl]benzoate]
(7) % activity found ([2]; 10 DAT, rate (6) 2): 40%
(7) % activity found ([2]; 10 DAT, rate (6) 6): 60%
(7) % activity found ([2]; 21 DAT, rate (6) 2): 20%
(7) % activity found ([2]; 21 DAT, rate (6) 6): 70%
(7) % activity found ([3]; 10 DAT, rate (6) 6): 40%
(7) % activity found ([6]; rate (6) 2): 40%
(7) % activity found ([6]; rate (6) 6): 50%
(7) % activity found ([4]; 21 DAT, rate (6) 2): 20%
(7) % activity found ([4]; 21 DAT, rate (6) 6): 70%

Compound: COCCOc1ccccc1S(=O)(=O)NC(=O)Nc1nc(OC)nc(OC)n1 [B7-6, N-[[(4,6-dimethoxy-1,3,5-triazin-2-yl)amino]carbonyl]-2-(2-methoxyethoxy)benzenesulfonamide]
% activity found ([7]; dose (6) 21): 0%
% activity found ([8]; dose (6) 7): 0%
% activity found ([8]; dose (6) 21): 0%
% activity found ([9]; 10 DAT, dose (6) 7): 40%
% activity found ([9]; 21 DAT, dose (6) 7): 10%

Compound: COc1cnc(OC)n2nc(NS(=O)(=O)c3c(OCC(F)F)cccc3C(F)(F)F)nc12 [B9-6, 2-(2,2-difluoroethoxy)-N-(5,8-dimethoxy[1,2,4]triazolo[1,5-c]pyrimidin-2-yl)-6-(trifluoromethyl)benzenesulfonamide]
(7) % activity found ([10]; rate (6) 5): 10%
(7) % activity found ([10]; rate (6) 15): 30%
(7) % activity found ([2]; 10 DAT, rate (6) 15): 10%
(7) % activity found ([2]; 21 DAT, rate (6) 15): 0%
(7) % activity found ([3]; 10 DAT, rate (6) 5): 0%
(7) % activity found ([3]; 10 DAT, rate (6) 15): 30%
(7) % activity found ([9]; 21 DAT, rate (6) 5): 20%

Compound: CCC(=O)Nc1ccc(Cl)c(Cl)c1 [B3-8, N-(3,4-dichlorophenyl)propanamide]
% activity found ([7]; B 700 g of ai/ha): 0%
% activity found ([7]; B 2100 g of ai/ha): 0%
plant injury at 700 g/ha ([1]; Oryza sativa, post-emergence, 504 h, 21 DAT, B 700 g of ai/ha, read-out: % activity found): 0%
plant injury at 2100 g/ha ([1]; Oryza sativa, post-emergence, 504 h, 21 DAT, B 2100 g of ai/ha, read-out: % activity found): 0%
% activity found ([10]; B 2100 g of ai/ha): 40%
plant injury at 700 g/ha ([2]; Triticum aestivum, post-emergence, 504 h, 21 DAT, B 700 g of ai/ha, read-out: % activity found): 10%
plant injury at 700 g/ha [3, 14]: 0%
plant injury at 2100 g/ha [3, 14]: 0%
plant injury at 700 g/ha [3, 15]: 0%
plant injury at 2100 g/ha [3, 15]: 0%
% activity found ([6]; B 700 g of ai/ha): 50%
% activity found ([11]; 10 DAT, B 700 g of ai/ha): 0%
% activity found ([11]; 10 DAT, B 2100 g of ai/ha): 0%
% activity found ([11]; 21 DAT, B 700 g of ai/ha): 0%
% activity found ([11]; 21 DAT, B 2100 g of ai/ha): 0%
% activity found ([4]; 10 DAT, B 700 g of ai/ha): 20%
% activity found ([4]; 21 DAT, B 700 g of ai/ha): 0%
% activity found ([4]; 21 DAT, B 2100 g of ai/ha): 10%
pest or weed control at 700 g/ha ([12]; 504 h, 21 DAT, B 700 g of ai/ha): 0%
pest or weed control at 2100 g/ha ([12]; 504 h, 21 DAT, B 2100 g of ai/ha): 20%
% activity found ([5]; 21 DAT, B 700 g of ai/ha): 60%
% activity found ([5]; 21 DAT, B 2100 g of ai/ha): 70%
pest or weed control at 2100 g/ha ([13]; B 2100 g of ai/ha): 80%
% activity found ([9]; 10 DAT, B 700 g of ai/ha): 0%

(7) % activity found ([1]; 10 DAT, rate (6) 0.7): 50%
(7) % activity found ([1]; 10 DAT, rate (6) 2): 70%
(7) % activity found ([1]; 21 DAT, rate (6) 2): 40%
Compound: COC(=O)c1csc(C)c1S(=O)(=O)NC(=O)n1nc(OC)n(C)c1=O [B8-3, methyl 4-[[[(4,5-dihydro-3-methoxy-4-methyl-5-oxo-1H-1,2,4-triazol-1-yl)carbonyl]amino]sulfonyl]-5-methyl-3-thiophenecarboxylate]
(7) % activity found ([7]; rate (6) 0.7): 0%
(7) % activity found ([2]; 21 DAT, rate (6) 2): 30%
(7) % activity found ([8]; rate (6) 2): 40%
(7) % activity found ([3]; 21 DAT, rate (6) 2): 20%
(7) % activity found ([4]; 21 DAT, rate (6) 0.7): 50%

Compound: O=C(Nc1ccc(F)cc1F)c1cccnc1Oc1cccc(C(F)(F)F)c1 [B3-1, N-(2,4-difluorophenyl)-2-[3-(trifluoromethyl)phenoxy]-3-pyridinecarboxamide]
% activity found ([7]; B 40 g of ai/ha): 0%
% activity found ([7]; B 120 g of ai/ha): 0%
plant injury at 40 g/ha ([1]; Oryza sativa, post-emergence, 504 h, 21 DAT, B 40 g of ai/ha, read-out: % activity found): 30%
plant injury at 120 g/ha ([1]; Oryza sativa, post-emergence, 504 h, 21 DAT, B 120 g of ai/ha, read-out: % activity found): 50%
plant injury at 40 g/ha ([2]; Triticum aestivum, post-emergence, 240 h, 10 DAT, B 40 g of ai/ha, read-out: % activity found): 20%
plant injury at 40 g/ha [3, 14]: 40%
plant injury at 120 g/ha ([3]; Zea mays, post-emergence, 240 h, 10 DAT, B 120 g of ai/ha, read-out: % activity found): 40%
plant injury at 40 g/ha [3, 15]: 30%
pest or weed control at 40 g/ha ([12]; 240 h, 10 DAT): 40%
pest or weed control at 40 g/ha ([12]; 504 h, 21 DAT): 10%
pest or weed control at 120 g/ha ([12]; 504 h, 21 DAT, B 120 g of ai/ha): 20%
pest or weed control at 40 g/ha ([13]; B 40 g of ai/ha): 60%
% activity found ([9]; 21 DAT, B 120 g of ai/ha): 30%

Reference: patent publication US20100099564A1, “HERBICIDE COMBINATION COMPRISING DIMETHOXYTRIAZINYL-SUBSTITUTED DIFLUOROMETHANESULFONYLANILIDES” (BAYER CROPSCIENCE AG, priority 2008, published 2010)
